Measurements reported in PubChem BioAssay AID330 (DTP/NCI, 2004).
Several values for one entry are separate records, joined by “and”; a condition that tells them apart may be missing. Equal values may be shown once. Toxic doses and inconclusive results are not listed. Square brackets hold non-standard residues; d marks the D form. Peptide text beside a SMILES is read from it. * marks the point of attachment. ξ: configuration not given here. Cbz = O=C(OCc1ccccc1)*; OBn = c1ccc(CO*)cc1; ξS = NC(CO)C(=O)O

Tested on: P388 leukemia ip, CD2F1 mice, survival T/C
Experiment: NCI In Vivo Anticancer Drug Screen. Data for tumor model P388 Leukemia (intraperitoneal) in CD2F1 (CDF1) mice
Details: endpoint: median survival time, higher = longer survival
Procedure, shortened: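 Mice carrying the transplanted tumor received test compound or vehicle. Survival was recorded in each group, and the value is the treated-group measurement divided by that of the vehicle-treated control group.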

[1] = dose: 50.0 mg/kg/injection, schedule: Q01DX005 (ip), vehicle: Klucel (hydroxypropylcellulose) (HPC)
[2] = dose: 100.0 mg/kg/injection, schedule: Q01DX005 (ip), vehicle: Klucel (hydroxypropylcellulose) (HPC)
[3] = dose: 200.0 mg/kg/injection, schedule: Q01DX005 (ip), vehicle: Klucel (hydroxypropylcellulose) (HPC)
[4] = dose: 60.0 mg/kg/injection, schedule: Q01DX005 (ip), vehicle: Klucel (hydroxypropylcellulose) (HPC)
[5] = dose: 120.0 mg/kg/injection, schedule: Q01DX005 (ip), vehicle: Klucel (hydroxypropylcellulose) (HPC)
[6] = dose: 240.0 mg/kg/injection, schedule: Q01DX005 (ip), vehicle: Klucel (hydroxypropylcellulose) (HPC)
[7] = dose: 50.0 mg/kg/injection, schedule: Q01DX009 (ip), vehicle: saline with Tween-80
[8] = dose: 100.0 mg/kg/injection, schedule: Q04DX002 (ip), vehicle: saline with Tween-80
[9] = dose: 60.0 mg/kg/injection, schedule: Q01DX005 (ip), vehicle: saline with Tween-80
[10] = dose: 120.0 mg/kg/injection, schedule: Q01DX005 (ip), vehicle: saline with Tween-80
[11] = dose: 50.0 mg/kg/injection, schedule: Q04DX003 (ip), vehicle: saline with Tween-80
[12] = dose: 100.0 mg/kg/injection, schedule: Q04DX003 (ip), vehicle: saline with Tween-80
[13] = dose: 12.5 mg/kg/injection, schedule: Q04DX003 (ip), vehicle: saline with Tween-80
[14] = dose: 25.0 mg/kg/injection, schedule: Q04DX003 (ip), vehicle: saline with Tween-80

## CC(C)CC(NC(=O)C(Cc1cnc[nH]1)NC(=O)OCc1ccccc1)C(=O)O (stereo not drawn) (Cbz-His-Leu-OH; configuration not given here)
[1]
  T/C: 102 % of control
[2]
  T/C: 104 % of control
[3]
  T/C: 104 % of control

## COc1ccc(OC)c(NC(=O)SC(C)C)c1
[4]
  T/C: 93 % of control
[5]
  T/C: 96 % of control
[6]
  T/C: 92 % of control

## O=P(c1ccccc1)(c1ccccc1)c1ccccc1OCCCO
[1]
  T/C: 99 % of control
[2]
  T/C: 100 % of control
[3]
  T/C: 97 % of control

## Nc1ccc(N(CCCl)CCN(CCCl)c2ccc(N)cc2)cc1
dose: 0.8 mg/kg/injection, schedule: Q01DX009 (ip), vehicle: saline sonified
  T/C: 176 % of control
dose: 1.2 mg/kg/injection, schedule: Q01DX009 (ip), vehicle: saline sonified
  T/C: 209 % of control
dose: 1.25 mg/kg/injection, schedule: Q01DX009 (ip), vehicle: saline
  T/C: 177 % of control
dose: 2.5 mg/kg/injection, schedule: Q01DX009 (ip), vehicle: saline
  T/C: 122 % of control
dose: 5.0 mg/kg/injection, schedule: Q01DX009 (ip), vehicle: saline
  T/C: 90 % of control
dose: 5.0 mg/kg/injection, schedule: Q04DX003 (ip), vehicle: saline with Tween-80
  T/C: 118 % of control

## COC(=O)C1(CC(=O)C2CC2)NC(=S)NC(=O)C1C#N (stereo not given)
[4]
  T/C: 103 % of control
[5]
  T/C: 100 % of control
[6]
  T/C: 100 % of control

## CN(C)C(=S)SC1OC(CO)C(OC2OC(CO)C(O)C(O)C2O)C(O)C1O (stereo not given)
[7]
  T/C: 93 % of control
dose: 100.0 mg/kg/injection, schedule: Q01DX009 (ip), vehicle: saline with Tween-80
  T/C: 90 % of control
dose: 200.0 mg/kg/injection, schedule: Q01DX009 (ip), vehicle: saline with Tween-80
  T/C: 88 % of control

## NC(=S)N/N=C/c1nc2ccccc2c(=O)n1-c1ccc(Cl)cc1
[8]
  T/C: 104 % of control
dose: 200.0 mg/kg/injection, schedule: Q04DX002 (ip), vehicle: saline with Tween-80
  T/C: 95 % of control
dose: 400.0 mg/kg/injection, schedule: Q04DX002 (ip), vehicle: saline with Tween-80
  T/C: 98 % of control

## COc1ccccc1N1C(=S)N(c2cccc(Cl)c2Cl)C(=O)C(N=Nc2ccc(Br)cc2)C1O (stereo not given)
dose: 100.0 mg/kg/injection, schedule: Q01DX001 (ip), vehicle: Klucel (hydroxypropylcellulose) (HPC)
  T/C: 100 % of control
dose: 200.0 mg/kg/injection, schedule: Q01DX001 (ip), vehicle: Klucel (hydroxypropylcellulose) (HPC)
  T/C: 99 % of control
dose: 400.0 mg/kg/injection, schedule: Q01DX001 (ip), vehicle: Klucel (hydroxypropylcellulose) (HPC)
  T/C: 96 % of control

## O=C(CNC(=O)C(CO)NC(=O)OCc1ccccc1)NCC(=O)OCc1ccccc1 (stereo not drawn) (Cbz-[ξS]-Gly-Gly-OBn)
[1]
  T/C: 101 % of control
[2]
  T/C: 99 % of control
[3]
  T/C: 97 % of control

## C/C(=N\O)c1ccc2ccccc2c1
dose: 50.0 mg/kg/injection, schedule: Q01DX009 (ip), vehicle: saline
  T/C: 101 % of control
dose: 100.0 mg/kg/injection, schedule: Q01DX009 (ip), vehicle: saline
  T/C: 113 % of control
dose: 200.0 mg/kg/injection, schedule: Q01DX009 (ip), vehicle: saline
  T/C: 102 % of control

## CS(=O)(=O)OCC(Br)C(Br)COS(C)(=O)=O (stereo not given)
dose: 50.0 mg/kg/injection, schedule: Q01DX009 (ip), vehicle: Klucel (hydroxypropylcellulose) (HPC)
  T/C: 107 % of control
dose: 100.0 mg/kg/injection, schedule: Q01DX009 (ip), vehicle: Klucel (hydroxypropylcellulose) (HPC)
  T/C: 87 % of control

## C/C(=N\NC(N)=Nc1ccccc1)c1ccc2c(c1)Cc1ccccc1-2
dose: 25.0 mg/kg/injection, schedule: Q04DX002 (ip), vehicle: saline with Tween-80
  T/C: 103 % of control
dose: 50.0 mg/kg/injection, schedule: Q04DX002 (ip), vehicle: saline with Tween-80
  T/C: 94 % of control
[8]
  T/C: 104 % of control

## CC1/C(=N\N=C(N)N)c2ccccc2/C1=N/N=C(N)N (stereo not given)
dose: 25.0 mg/kg/injection, schedule: Q01DX001 (ip), vehicle: saline
  T/C: 106 % of control
dose: 50.0 mg/kg/injection, schedule: Q01DX001 (ip), vehicle: saline
  T/C: 102 % of control
dose: 100.0 mg/kg/injection, schedule: Q01DX001 (ip), vehicle: saline
  T/C: 99 % of control

## CCOC(=O)c1ccc(OC)c2[nH]c3c(c(=O)c12)C(=O)c1[nH]c2c(OC)ccc(C(=O)OCC)c2c(=O)c1C3=O
dose: 100.0 mg/kg/injection, schedule: Q04DX003 (ip), vehicle: Klucel (hydroxypropylcellulose) (HPC)
  T/C: 97 % of control
dose: 200.0 mg/kg/injection, schedule: Q04DX003 (ip), vehicle: Klucel (hydroxypropylcellulose) (HPC)
  T/C: 103 % of control
dose: 400.0 mg/kg/injection, schedule: Q04DX003 (ip), vehicle: Klucel (hydroxypropylcellulose) (HPC)
  T/C: 100 % of control

## CCOC(=O)CCC(NC(=O)c1ccc(CBr)cc1)C(=O)OCC (stereo not given)
dose: 12.5 mg/kg/injection, schedule: Q01DX009 (ip), vehicle: distilled water + Tween-80
  T/C: 102 % of control
dose: 25.0 mg/kg/injection, schedule: Q01DX009 (ip), vehicle: distilled water + Tween-80
  T/C: 111 % of control
dose: 50.0 mg/kg/injection, schedule: Q01DX009 (ip), vehicle: distilled water + Tween-80
  T/C: 107 % of control
dose: 100.0 mg/kg/injection, schedule: Q01DX009 (ip), vehicle: distilled water + Tween-80
  T/C: 100 % of control

## CSc1nc(NC2OCC(O)C(O)C2O)c(C=O)c(=O)n1C (stereo not given)
[9]
  T/C: 96 % of control
[10]
  T/C: 97 % of control

## COc1cccc2c1C(=O)c1c(O)c3c(c(O)c1C2=O)CC(O)(C(C)=O)CC3OC1CC(NCC2(O)OCC(O)C(OC3OC(CO)C(O)C(O)C3O)C2O)C(O)C(C)O1 (stereo not given)
dose: 1.56 mg/kg/injection, schedule: Q04DX003 (ip), vehicle: water
  T/C: 100 % of control
dose: 3.12 mg/kg/injection, schedule: Q04DX003 (ip), vehicle: water
  T/C: 98 % of control and 99 % of control
dose: 3.13 mg/kg/injection, schedule: Q04DX003 (ip), vehicle: water
  T/C: 95 % of control
dose: 6.25 mg/kg/injection, schedule: Q04DX003 (ip), vehicle: water
  T/C: 99 % of control and 102 % of control and 103 % of control
dose: 12.5 mg/kg/injection, schedule: Q04DX003 (ip), vehicle: water
  T/C: 100 % of control
dose: 25.0 mg/kg/injection, schedule: Q04DX003 (ip), vehicle: water
  T/C: 105 % of control and 108 % of control and 119 % of control
dose: 50.0 mg/kg/injection, schedule: Q04DX003 (ip), vehicle: water
  T/C: 119 % of control

## Cc1[nH]nc(C(N)=O)c1N=NN(C)C
dose: 12.5 mg/kg/injection, schedule: Q01DX009 (ip), vehicle: saline with Tween-80
  T/C: 113 % of control
[7]
  T/C: 204 % of control and 209 % of control
[11]
  T/C: 122 % of control
[12]
  T/C: 150 % of control
dose: 132.0 mg/kg/injection, schedule: Q04DX003 (ip), vehicle: saline with Tween-80
  T/C: 159 % of control
dose: 200.0 mg/kg/injection, schedule: Q04DX003 (ip), vehicle: saline with Tween-80
  T/C: 154 % of control

## C=C1C(=O)O[C@@H]2C[C@@]3(C)CC(=O)C=C(C)[C@@H]3C[C@H]12
dose: 6.25 mg/kg/injection, schedule: Q04DX003 (ip), vehicle: saline with Tween-80
  T/C: 108 % of control
[13]
  T/C: 104 % of control
[14]
  T/C: 108 % of control
[11]
  T/C: 100 % of control

## O=C(CNC(=O)NCc1ccco1)NNC(=O)Nc1ccc(F)c(Cl)c1
[9]
  T/C: 101 % of control
[10]
  T/C: 106 % of control
dose: 240.0 mg/kg/injection, schedule: Q01DX005 (ip), vehicle: saline with Tween-80
  T/C: 110 % of control

## O=C(NCCCBr)c1csc(-c2csc(CCNC(=O)C(F)(F)F)n2)n1
dose: 6.25 mg/kg/injection, schedule: Q01DX005 (ip), vehicle: saline with Tween-80
  T/C: 89 % of control
dose: 12.5 mg/kg/injection, schedule: Q01DX005 (ip), vehicle: saline with Tween-80
  T/C: 104 % of control
dose: 25.0 mg/kg/injection, schedule: Q01DX005 (ip), vehicle: saline with Tween-80
  T/C: 95 % of control
dose: 50.0 mg/kg/injection, schedule: Q01DX005 (ip), vehicle: saline with Tween-80
  T/C: 97 % of control
dose: 100.0 mg/kg/injection, schedule: Q01DX005 (ip), vehicle: saline with Tween-80
  T/C: 90 % of control
dose: 200.0 mg/kg/injection, schedule: Q01DX005 (ip), vehicle: saline with Tween-80
  T/C: 87 % of control

## Cc1nc2c([N+](=O)[O-])c(N3CCN(C)CC3)c([N+](=O)[O-])cc2[nH]1
[13]
  T/C: 95 % of control
[14]
  T/C: 106 % of control
[11]
  T/C: 100 % of control and 90 % of control
[12]
  T/C: 104 % of control
